Consider 66 compounds from a melting point compilation (Tetko et al.; mined from patent text by program, amines drawn as free bases though some values may be those of a salt).

Residues, ends and D or L forms follow the SMILES beside them.

As to `O=C(O)c1ccccc1Sc1cccc2c1C(=O)NC2=O`, the melting point was 289 to 290 °C.

With `CCCCc1ncc(CO)n1Cc1ccccc1Cl`, the melting point was 86 to 88 °C.

Take `CCCCc1nc(N)c(N)c(=O)[nH]1`: the melting point was in the range of 160 to 165 °C.

As for `CCOC(=O)c1cc2cc(Cl)c(F)cc2[nH]1`, the melting point was 160 to 164 °C.

The compound `O=c1cc(-c2ccccc2)nc2ccn(-c3ccccc3)n12` displayed a melting point of 194 to 200 °C.

As to `Cc1cc2nc3c(nc2cc1[N+](=O)[O-])SC(=C(C#N)C#N)S3`, the melting point lay within 283 to 284 °C.

The compound `O=C(Nc1ccc(-c2nc3ccccc3s2)cc1)c1ccccc1` showed a melting point of 227 to 228 °C.

Turning to `COc1ccc2c(SC(C)(C)C)c(C(C)C(C)(C)C(=O)O)[nH]c2c1` (stereo unspecified), the melting point worked out at 133 °C.

In turn, `Cn1cc(C(=O)O)c(=O)c2cc(F)c(-n3cccc3)cc21` returned a melting point of 284 to 285 °C.

For `CCCOC1=CC(=O)C(C(=O)OCC)C(c2ccc(C)cc2)C1` (stereo unspecified), the melting point was 106 to 107 °C.

For the compound `CCCc1c(OCc2ccc(C=CC(=O)O)c(OC)c2)ccc(C(C)=O)c1O`, the melting point fell in the range of 214 to 216 °C.

Turning to `C/C=C/C(=O)NCCc1ccc(F)cc1`, the melting point lay within 121 to 123 °C.

Take `CCCOc1nc(-c2ccco2)c2ncn(Cc3ccc(OC)cc3)c2n1`: the melting point turned out to be 119 °C.

The compound `Cc1csc2ccc3[nH]c4c(c3c12)CNCC4` showed a melting point of 234 °C.

With `O=C(Nc1cccnc1)c1nnc2ccccc2c1O`, the melting point is 326 to 328 °C.

On to `CCOC(=O)CCCCCCn1cnc2ccncc21`, for which the melting point lay within 64 to 65 °C.

The compound `O=C(CCCOc1ccc2nc3[nH]c(=O)[nH]c3cc2c1)N1CCN(c2ccccc2)CC1` gave a melting point of 277 to 279 °C.

`CCc1noc(C)c1C(C)=NNc1ccccc1` yielded a melting point of 72 to 75 °C.

`NC(=O)CNC(=O)[C@@H]1CCCN1` (H-Pro-Gly-NH2) returned a melting point of 124 to 127 °C.

For `O=S(=O)(c1ccc(Cl)cc1)C(c1ccc(CN2CCOCC2)cn1)c1cc(F)ccc1F` (stereo unspecified), the melting point was in the range of 120 to 121 °C.

In turn, `O=C(CC(F)(F)F)CS(=O)(=O)C(c1ccc(Cl)cc1)c1ccc(Cl)cc1` returned a melting point of 48 to 50 °C.

As to `O=C(O)CO[C@@H]1COc2nc([N+](=O)[O-])cn2C1`, the melting point was in the range of 178 to 179 °C.

Take `C=C1N(c2ccccc2)C(=O)OC12CCN(C(=O)N1CCN(C)CC1)CC2`: the melting point was 139 to 140 °C.

For `O=C(N[C@H](Cc1ccccc1)C(=O)O)OCc1cc2cc(-c3ccsc3)ccc2o1`, the melting point lay within 169 to 170 °C.

In the case of `Cc1ccnc2c(N)cc3c(c12)OCO3`, the melting point lay in the range of 118 to 120 °C.

On to `CCSc1cc2ncc(C#N)c(Nc3cc(OC)c(Cl)cc3Cl)c2cc1OC`, for which the melting point lay within 212 to 214 °C.

As for `O=C1N[C@H](Cc2ccc(C(F)(F)F)cc2)[C@H](c2ccncc2)O1` (racemic), the melting point was 212 to 213 °C.

As to `Cc1cncn1-c1cc(N)cc(C(F)(F)F)c1`, the melting point lay within 131 to 133 °C.

Compound `CC1(C)OC(=O)Nc2ccc(I)cc21` yielded a melting point of 196 to 197 °C.

Compound `CN(C)S(=O)(=O)C(Br)(Br)Sc1ccccc1` came in with a melting point of 128 to 129 °C.

Take `CCc1cc(CO)nn1-c1ccc([N+](=O)[O-])cc1`: the melting point is 151 to 152 °C.

Take `Cc1cnc2ccc3c(c2c1)OC(CN1CC=C(c2c[nH]c4ccccc24)CC1)CO3` (stereo unspecified): the melting point lay in the range of 211 to 213 °C.

Take `Cc1nc(-c2ccccc2)cc(-c2cccc([N+](=O)[O-])c2)c1C(=O)NCCN(C)C`: the melting point is 143 to 145 °C.

In the case of `Nc1cccc(-c2ccc(CCN3CCN(C4CCc5ccccc5C4)CC3)cc2)n1` (stereo unspecified), the melting point is greater than 220 °C.

In the case of `O=C(NCCO[N+](=O)[O-])c1cscn1`, the melting point fell in the range of 105 to 108 °C.

In the case of `CC(C)(C)OC(=O)NCc1cccc(C=CC(=O)O)c1`, the melting point was 121 to 123 °C.

For `Fc1ccc(F)c(CC2CCN([C@H]3CC[C@H](c4ccc5c(c4)OCO5)CC3)CC2)c1`, the melting point lay in the range of 96 to 97 °C.

In turn, `CCOc1c(-c2ccc(N(C)C)c(O)c2)c(=O)c1=O` displayed a melting point greater than 182 °C.

Regarding `Cc1ccc(-c2c(NS(=O)(=O)c3ccc(C(C)(C)C)cc3)nc(NCCO)nc2OCCOCc2ccccc2)cc1`, the melting point is 124 to 126 °C.

Compound `N#Cc1nn(-c2c(Cl)cc(C(F)(F)F)cc2Cl)c(-n2cccc2)c1S(=O)C(F)(F)F` (stereo unspecified) displayed a melting point of 165 to 167 °C.

`CC(C)(C=CBr)C(=O)Nc1ccc(Cl)cc1` displayed a melting point of 134 to 135 °C.

Consider `O=c1[nH]c(CCl)c(Br)c(=O)[nH]1`, for which the melting point was determined as 245 °C.

For `CCOC(=O)c1sc2[nH]c(=O)ccc2c1Br`, the melting point lay in the range of 262 to 268 °C.

Turning to `Cc1ccccc1NC1(C#N)CCN(C(=O)c2cc(C(F)(F)F)cc(C(F)(F)F)c2)CC1`, the melting point was in the range of 141 to 142 °C.

Compound `O=S(=O)(Cl)c1ccc(Cl)c(CCl)c1Cl` returned a melting point of 68 °C.

Consider `Cc1nc2c(-c3cccc(N4CCN(CCO)CC4)c3)cnn2c(N)c1-c1ccc(F)c(Cl)c1`, for which the melting point was in the range of 104 to 107 °C.

`Cc1c(OCC(C)(C)CS(N)(=O)=O)nn2ccnc2c1C` gave a melting point of 222 to 225 °C.

`CCOC(=O)C1=C(N)N=C(SCC)C(C(=O)OCC)C1c1cccc([N+](=O)[O-])c1` (stereo unspecified): the melting point came out at 187 °C.

The compound `COc1ccc(NC(=O)O[C@H]2COC(c3ccccc3)=N[C@@H]2c2ccccc2)cc1` (racemic) came in with a melting point of 140 °C.

With `COC(CCCNC(=O)c1ccc2c(c1)C(=O)N(CCCC(OC)OC)C2=O)OC`, the melting point stood at 102 °C.

The compound `CCOC(=O)C(C(=O)OCC)[C@H](C[N+](=O)[O-])c1ccccc1` showed a melting point of 45 to 47 °C.

As for `Oc1cc(O)c2ccccc2n1`, the melting point is 350 to 355 °C.

On to `COc1cc(N2CCOCC2)ccc1Nc1nc(Nc2cc(F)cc3c2OCCNC3=O)ncc1Cl`, for which the melting point is greater than 230 °C.

Turning to `O=C(c1cccs1)N1CCc2cc(S(=O)(=O)n3cc(-c4ccccc4)[nH]c3=O)ccc21`, the melting point lay in the range of 258 to 260 °C.

On to `CC(C)N(C(=O)c1ccc(N)cc1)C(C)C`, for which the melting point was found to be 170 °C.

As for `Fc1ccc2nc(-c3ccccc3)cc(Cl)c2c1`, the melting point fell in the range of 96 to 99 °C.

In turn, `Cc1cc(OC(F)F)nc(S(C)(=O)=O)n1` displayed a melting point of 86 to 88 °C.

`COC(=O)c1cccc(NC(=O)[C@H](Cc2ccccc2)NC(=O)OC(C)(C)C)c1` registered a melting point of 62 to 66 °C.

As to `CN1c2ccc(C=C(c3ccccc3)c3ccccc3)cc2Sc2cc(C=C(c3ccccc3)c3ccccc3)ccc21`, the melting point is 233 to 241 °C.

In turn, `COc1ccc(-c2oncc2CCCO)cc1OC` returned a melting point of 55 to 56 °C.

Take `COC(=O)CCc1oc(-n2ccnc2)nc1-c1ccc(Cl)cc1`: the melting point fell in the range of 95 to 96 °C.

`C=C(C)n1c(=O)n(CCCCl)c2ccccc21`: the melting point came to 115 °C.

For the compound `CC(C)(C)c1ccccc1N1CCN(C(=O)Cc2nnn[nH]2)CC1`, the melting point is 236 to 237 °C.

Consider `CC(=O)Oc1ccccc1C(=O)NC(O)C(Cl)(Cl)Cl` (stereo unspecified), for which the melting point is 124 to 126 °C.

With `CC(=O)Nc1ccc(S(=O)(=O)Nc2ccn(CC3CC3)c(=O)n2)cc1`, the melting point was 222 to 224 °C.

The compound `CC(=O)NCc1ccc2oc([N+](=O)[O-])c(-c3ccccc3)c2c1` came in with a melting point of 201 to 203 °C.
